# Measurements taken from publication PMC11206988, “Study on the Effect of Pharmaceutical Excipient PEG400 on the Pharmacokinetics of Baicalin in Cells Based on MRP2, MRP3, and BCRP Efflux Transporters” (Pharmaceutics, 2024).
# Read-outs that look alike come from different tables or passages of the source.
# Key:
# Format in all cases: in vitro ADME
# [1] = Transport of baicalin across MDCK II-WT cell monolayer (transwell); conditions: dog, MDCK, pH 7.4, MDCK II-WT; for efflux ratio at 120 min, 100 μM: read-out: ER
# Method: (§1) The cells were inoculated at a density of 0.5 mL (1 × 10^5) in the upper layer of the transwell plate (AP side), and the culture was changed daily after the lower layer was added with 1.5 mL of complete medium without cells every other day. After 5–7 days of growth, the supernatant was aspirated and discarded, and the cell monolayer was rinsed twice with 37 °C Hank’s Balanced Salt Solution (HBSS, pH 7.4). The electrical resistance of the cell monolayer compartments was measured with a resistivity meter (TEER), and the integrity of the cell monolayer was monitored using TEER. The differentiation of MDCK II-WT, MDCK II-MRP2, MDCK II-MRP3, and MDCK II-BCRP cells was examined by determining sodium fluorescein permeability prior to transit experiments. This was done in order to determine the integrity of the cell monolayer. When the TEER value of the cell monolayer was greater than 150 Ω·cm^2 and the MDCK II-MRP2, MDCK II-MRP3, and MDCK II-BCRP sodium fluorescein permeability was less than 0.5 × 10^−6 cm/s or the MDCK II-WT sodium fluorescein permeability was less than 1 × 10^−6 cm/s, the cell monolayer was considered intact and suitable for transit experiments. TEER = (TEERcell monolayer − TEERblank) × Aarea(1) wherein TEERcell monolayer is the resistance of the cell monolayer read directly from the Millicell ERS-2 resistivity meter, and TEERblank is the resistance read by inserting a blank HBSS (no cells) only. Aarea is the surface area of the filter membrane, 1.12 cm^2.
# (§2) In this experiment, a 100 μM baicalin solution (dissolved in HBSS) containing different concentrations of PEG400 (0.25%, 0.5%, and 1%) was employed as the test solution, while a solution without PEG400 was used as the blank test solution, which was added to AP or BL chambers, respectively. In the top to basolateral (AP-BL) transport experiment, the 0.5 mL sample added to the apical side (AP) was utilized as the supply room, and the HBSS preheated to 1.5 mL 37 °C was added to the basolateral (BL) as the receiving chamber. Conversely, in the basal low lateral to top (BL-AP) transport experiment, the 1.5 mL sample (dissolved in HBSS) was added to the BL side as the supply room, and the 0.5 mL preheated HBSS was added as a receiving room on the AP side. Once the aforementioned steps had been completed, the transwell was placed on a 37 °C thermostatic oscillator at 60 r/min, and 100 μL was withdrawn from the receiving cell or 10 μL from the supply chamber at 30, 60, 90, and 120 min, depending on the experiment, and replenished with an equal volume of blank 37 °C preheated HBSS. The samples were utilized to precipitate the proteins with 100 μL of methanol containing the internal standard for 10 min. After centrifugation at 16,000× g for 15 min at 4 °C, the supernatant was collected in a volume of 70 μL. The contents were determined by UPLC-MS/MS, and apparent permeability coefficients (PAPP) and efflux ratios (ER) were calculated.
# (§3) The formulas for calculating Papp and ER of monolayer and monolayer are as follows:(2) Papp=dQ/dt/AC0 wherein dQ/dt (ng/mL·s) is the transit rate (ng/mL·s); A is the membrane area (1.12 cm^2); and C0 (ng/mL) is the initial concentration of the sample in the supply chamber. ER = PappBL-AP/PappAP-BL (3) wherein PappBL-AP is the apparent permeability coefficient when the BL is added to the sample, and PappAP-BL is the apparent permeability coefficient when the sample is added at the top side (AP).
# [2] = system: MDCK II-WT cells; experiment: as above; conditions: MDCK II-WT
# Method: as §1, §2, §3
# [3] = biological target: T1, MRP2 (Homo sapiens, UniProt Q92887); experiment: Transport of baicalin across MDCK II-MRP2 cell monolayer (transwell)
# T1 construct: expressed in transfected cells; host or cells: MDCK II
# T1 sequence (Q92887 whole entry): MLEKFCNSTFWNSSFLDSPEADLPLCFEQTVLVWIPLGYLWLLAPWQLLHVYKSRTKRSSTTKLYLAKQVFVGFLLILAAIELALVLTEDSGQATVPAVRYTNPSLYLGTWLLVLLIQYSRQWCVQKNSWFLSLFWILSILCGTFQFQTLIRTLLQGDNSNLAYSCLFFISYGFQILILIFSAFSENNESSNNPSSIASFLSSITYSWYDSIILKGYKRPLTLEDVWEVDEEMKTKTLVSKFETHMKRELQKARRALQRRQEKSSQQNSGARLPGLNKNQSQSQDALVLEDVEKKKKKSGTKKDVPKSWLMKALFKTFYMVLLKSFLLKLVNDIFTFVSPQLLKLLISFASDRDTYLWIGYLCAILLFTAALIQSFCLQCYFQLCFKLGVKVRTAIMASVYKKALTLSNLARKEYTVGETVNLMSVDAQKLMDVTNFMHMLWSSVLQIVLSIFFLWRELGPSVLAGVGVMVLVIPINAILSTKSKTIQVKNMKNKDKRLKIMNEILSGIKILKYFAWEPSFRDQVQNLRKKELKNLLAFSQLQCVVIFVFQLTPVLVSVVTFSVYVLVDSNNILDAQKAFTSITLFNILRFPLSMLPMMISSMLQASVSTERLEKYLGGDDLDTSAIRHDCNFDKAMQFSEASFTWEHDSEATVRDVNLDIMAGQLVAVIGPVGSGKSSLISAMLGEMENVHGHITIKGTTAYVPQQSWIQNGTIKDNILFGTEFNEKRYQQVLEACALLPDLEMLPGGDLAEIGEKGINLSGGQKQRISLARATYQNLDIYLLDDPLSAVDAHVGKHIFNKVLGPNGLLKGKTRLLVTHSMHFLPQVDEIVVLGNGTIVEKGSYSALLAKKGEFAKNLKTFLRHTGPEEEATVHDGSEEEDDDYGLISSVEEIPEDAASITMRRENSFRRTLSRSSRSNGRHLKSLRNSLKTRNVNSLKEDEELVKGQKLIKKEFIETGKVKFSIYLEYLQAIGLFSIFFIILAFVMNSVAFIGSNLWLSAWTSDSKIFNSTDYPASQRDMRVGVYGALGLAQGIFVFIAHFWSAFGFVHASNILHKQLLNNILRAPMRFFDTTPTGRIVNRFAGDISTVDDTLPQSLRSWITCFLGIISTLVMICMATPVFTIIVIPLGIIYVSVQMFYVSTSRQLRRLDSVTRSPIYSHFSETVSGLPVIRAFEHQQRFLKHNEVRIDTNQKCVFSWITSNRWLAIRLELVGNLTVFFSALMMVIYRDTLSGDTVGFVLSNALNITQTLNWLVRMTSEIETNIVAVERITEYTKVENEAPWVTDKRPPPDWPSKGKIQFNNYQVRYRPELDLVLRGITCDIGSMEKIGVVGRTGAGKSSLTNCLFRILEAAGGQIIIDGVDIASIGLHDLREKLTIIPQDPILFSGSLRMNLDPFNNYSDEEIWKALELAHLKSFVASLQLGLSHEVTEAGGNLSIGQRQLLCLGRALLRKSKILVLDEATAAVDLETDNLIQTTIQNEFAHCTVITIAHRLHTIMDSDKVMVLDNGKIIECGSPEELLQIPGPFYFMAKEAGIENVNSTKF
# Method: as §1, §2, §3
# [4] = pH 7.4, MDCK II-MRP2, 100 μM BG + 0.25% PEG400
# [5] = pH 7.4, MDCK II-MRP2, 100 μM BG + 0.5% PEG400
# [6] = pH 7.4, MDCK II-MRP2, 100 μM BG + 1% PEG400
# [7] = pH 7.4, MDCK II-MRP2, 100 μM BG alone
smiles,measurement,setting,value
"O=C(O)[C@H]1O[C@@H](Oc2cc3oc(-c4ccccc4)cc(=O)c3c(O)c2O)[C@H](O)[C@@H](O)[C@@H]1O [BG, Baicalein-7-O-β-D-glucuronide]","Papp A→B at 120 min, 100 μM",[1]; 100 μM BG + 0.25% PEG400,4.57 ± 1.08 ×10⁻⁶ cm/s
same,"Papp B→A at 120 min, 100 μM",[1]; 100 μM BG + 0.25% PEG400,7.94 ± 0.99 ×10⁻⁶ cm/s
same,"efflux ratio at 120 min, 100 μM",[1]; 100 μM BG + 0.25% PEG400,1.94 ± 0.27
same,"Papp A→B at 120 min, 100 μM",[1]; 100 μM BG + 0.5% PEG400,5.24 ± 0.53 ×10⁻⁶ cm/s
same,"Papp B→A at 120 min, 100 μM",[1]; 100 μM BG + 0.5% PEG400,6.78 ± 1.19 ×10⁻⁶ cm/s
same,"efflux ratio at 120 min, 100 μM",[1]; 100 μM BG + 0.5% PEG400,1.53 ± 0.14
same,"Papp A→B at 120 min, 100 μM",[1]; 100 μM BG + 1% PEG400,5.47 ± 0.94 ×10⁻⁶ cm/s
same,"Papp B→A at 120 min, 100 μM",[1]; 100 μM BG + 1% PEG400,3.61 ± 0.26 ×10⁻⁶ cm/s
same,"efflux ratio at 120 min, 100 μM",[1]; 100 μM BG + 1% PEG400,1.19 ± 0.12
same,"Papp A→B at 120 min, 100 μM",[1]; 100 μM BG alone,3.18 ± 0.07 ×10⁻⁶ cm/s
same,"Papp B→A at 120 min, 100 μM",[1]; 100 μM BG alone,11.6 ± 1 ×10⁻⁶ cm/s
same,"efflux ratio at 120 min, 100 μM",[1]; 100 μM BG alone,2.58 ± 0.27
same,ER,[2]; 100 μM BG + 0.25% PEG400,1.8 ± 0.44
same,ER,[2]; 100 μM BG + 0.5% PEG400,1.29 ± 0.11
same,ER,[2]; 100 μM BG + 1% PEG400,0.67 ± 0.07
same,ER,[2]; 100 μM BG alone,3.64 ± 0.28
same,"Papp A→B at 120 min, 100 μM",[3]; [4],1.27 ± 0.02 ×10⁻⁶ cm/s
same,"Papp B→A at 120 min, 100 μM",[3]; [4],2.83 ± 0.26 ×10⁻⁶ cm/s
same,"efflux ratio at 120 min, 100 μM","[3]; pH 7.4, MDCK II-MRP2, 100 μM BG + 0.25% PEG400, read-out: ER",2.22 ± 0.17
same,"Papp A→B at 120 min, 100 μM",[3]; [5],2.51 ± 0.07 ×10⁻⁶ cm/s
same,"Papp B→A at 120 min, 100 μM",[3]; [5],2.73 ± 0.31 ×10⁻⁶ cm/s
same,"efflux ratio at 120 min, 100 μM","[3]; pH 7.4, MDCK II-MRP2, 100 μM BG + 0.5% PEG400, read-out: ER",1.08 ± 0.09
same,"Papp A→B at 120 min, 100 μM",[3]; [6],3.17 ± 0.06 ×10⁻⁶ cm/s
same,"Papp B→A at 120 min, 100 μM",[3]; [6],2.53 ± 0.17 ×10⁻⁶ cm/s
same,"efflux ratio at 120 min, 100 μM","[3]; pH 7.4, MDCK II-MRP2, 100 μM BG + 1% PEG400, read-out: ER",0.8 ± 0.04
same,"Papp A→B at 120 min, 100 μM",[3]; [7],1.12 ± 0.11 ×10⁻⁶ cm/s
same,"Papp B→A at 120 min, 100 μM",[3]; [7],3.28 ± 0.27 ×10⁻⁶ cm/s
same,"efflux ratio at 120 min, 100 μM","[3]; pH 7.4, MDCK II-MRP2, 100 μM BG alone, read-out: ER",2.45 ± 0.04
